In patent US20210395262A1, “INHIBITORS OF HUMAN IMMUNODEFICIENCY VIRUS REPLICATION” (ViiV HEALTHCARE UK (NO.5) LIMITED, priority 2018, published 2021):
Where two headings read alike, the source gives them in different places.

Columns and labels:
recombinant NL4-3 virus = assay: HIV cell culture assay (antiviral activity, luciferase readout in MT-2 cells); assay type: cell-based; conditions: Human immunodeficiency virus 1, NL43, MT2
Procedure: HIV cell culture assay—MT-2 cells, 293T cells and the proviral DNA clone of NL4-3 virus were obtained from the […] AIDS Research and Reference Reagent Program. MT-2 cells were propagated in RPMI 1640 media supplemented with 10% heat inactivated fetal bovine serum (FBS), […] penicillin G and up to 100 units/mL streptomycin. The 293T cells were propagated in DMEM media supplemented with 10% heat inactivated FBS, […] penicillin G and […] streptomycin. A recombinant NL4-3 proviral clone, in which a section of the nef gene was replaced with the Renilla luciferase gene, was used to make the reference virus used in these studies. The recombinant virus was prepared through transfection of the recombinant NL4-3 proviral clone into 293T cells using Transit-293 Transfection Reagent from Mirus Bio LLC (Madison, Wis.). Supernatent was harvested after 2-3 days and the amount of virus present was titered in MT-2 cells using luciferase enzyme activity as a marker by measuring luciferase enzyme activity. Luciferase was quantitated using the EnduRen Live Cell Substrate from Promega (Madison, Wis.). Antiviral activities of compounds toward the recombinant virus were quantified by measuring luciferase activity in MT-2 cells infected for 4-5 days with the recombinant virus in the presence of serial dilutions of the compound.
The 50% effective concentration (EC50) was calculated by using the exponential form of the median effect equation where (Fa)=1/[1+(ED50/drug conc.)m] (Johnson V A, Byington R T. Infectivity Assay. In Techniques in HIV Research. ed. Aldovini A, Walker B D. 71-76. New York: Stockton Press. 1990). The 50% inhibitory concentration (EC50) was calculated by using the exponential form of the median effect equation where percent inhibition=1/[1+(EC50/drug concentration)m], where m is a parameter that reflects the slope of the concentration-response curve.

[1] = Compound cytotoxicity, XTT-based colorimetric assay; assay type: cell-based; conditions: human
Procedure: Compound cytotoxicity and the corresponding CC50 values were determined using the same protocol as described in the antiviral assay except that uninfected cells were used. Cytotoxicity was assessed on day 4 in uninfected MT2 cells by using a XTT (2,3-bis[2-Methoxy-4-nitro-5-sulfophenyl]-2H-tetrazolium-5-carboxyanilide inner salt)-based colorimetric assay (Sigma-Aldrich, St Louis, Mo.).

[2] = uninfected MT2 cells, day 4, XTT, read-out: CC50

Cn1nc(NS(C)(=O)=O)c2c(Cl)ccc(-n3c([C@H](Cc4cc(F)cc(F)c4)NC(=O)Cn4nc(C(F)F)c5c4C(F)(F)[C@@H]4C[C@H]54)nc4cc(N5C6COCC5COC6)ccc4c3=O)c21 [Example 6, N—((S)-1-(7-(3,7-dioxa-9-azabicyclo[3.3.1]nonan-9-yl)-(3P)-3-(4-chloro-1-methyl-3-(methylsulfonamido)-1H-indazol-7-yl)-4-oxo-3,4-dihydroquinazolin-2-yl)-2-(3,5-difluorophenyl)ethyl)-2-((3bS,4aR)-3-(difluoromethyl)-5,5-difluoro-3b,4,4a,5-tetrahydro-1H-cyclopropa[3,4]cyclopenta[1,2-c]pyrazol-1-yl)acetamide]
EC50 (recombinant NL4-3 virus): 0.145 nM
CC50 at 4 days [1]: > 500 nM

Cn1nc(NS(C)(=O)=O)c2c(Cl)ccc(-n3c([C@H](Cc4cc(F)cc(F)c4)NC(=O)Cn4nc(C(F)F)c5c4C(F)(F)[C@@H]4C[C@H]54)nc4cc(N5CCC(S(C)(=O)=O)CC5)ccc4c3=O)c21 (atropisomer, axis not shown; (P)) [Example 30, N—((S)-1-((3P)-3-(4-chloro-1-methyl-3-(methylsulfonamido)-1H-indazol-7-yl)-7-(4-(methylsulfonyl)piperidin-1-yl)-4-oxo-3,4-dihydroquinazolin-2-yl)-2-(3,5-difluorophenyl)ethyl)-2-((3bS,4aR)-3-(difluoromethyl)-5,5-difluoro-3b,4,4a,5-tetrahydro-1H-cyclopropa[3,4]cyclopenta[1,2-c]pyrazol-1-yl)acetamide]
EC50 (recombinant NL4-3 virus): 0.381 nM
CC50 at 4 days [1, 2]: > 500 nM

Cn1nc(NS(C)(=O)=O)c2c(Cl)ccc(-n3c([C@H](Cc4cc(F)cc(F)c4)NC(=O)Cn4nc(C(F)F)c5c4C(F)(F)[C@@H]4C[C@H]54)nc4cc(N5CCOCC5)ccc4c3=O)c21 (atropisomer, axis not shown; (P)) [Example 12, N—((S)-1-((3P)-3-(4-chloro-1-methyl-3-(methylsulfonamido)-1H-indazol-7-yl)-7-morpholino-4-oxo-3,4-dihydroquinazolin-2-yl)-2-(3,5-difluorophenyl)ethyl)-2-((3bS,4aR)-3-(difluoromethyl)-5,5-difluoro-3b,4,4a,5-tetrahydro-1H-cyclopropa[3,4]cyclopenta[1,2-c]pyrazol-1-yl)acetamide]
EC50 (recombinant NL4-3 virus): 0.035 nM
CC50 at 4 days [1, 2]: > 1000 nM

C[C@@H]1CN(c2ccc3c(=O)n(-c4ccc(Cl)c5c(NS(C)(=O)=O)nn(CC(F)(F)F)c45)c([C@H](Cc4cc(F)cc(F)c4)NC(=O)Cn4nc(C5CC5)cc4C(F)F)nc3c2)C[C@H](C)O1 (atropisomer, axis not shown; (P)) [Example 60, N—((S)-1-((3P)-3-(4-chloro-3-(methylsulfonamido)-1-(2,2,2-trifluoroethyl)-1H-indazol-7-yl)-7-((2S,6R)-2,6-dimethylmorpholino)-4-oxo-3,4-dihydroquinazolin-2-yl)-2-(3,5-difluorophenyl)ethyl)-2-(3-cyclopropyl-5-(difluoromethyl)-1H-pyrazol-1-yl)acetamide]
EC50 (recombinant NL4-3 virus): 0.36 nM
CC50 at 4 days [1, 2]: > 500 nM

CCS(=O)(=O)Nc1nn(C)c2c(-n3c([C@H](Cc4cc(F)cc(F)c4)NC(=O)Cn4nc(C(F)F)c5c4C(F)(F)[C@@H]4C[C@H]54)nc4cc(N5CCOCC5)ccc4c3=O)ccc(Cl)c12 (atropisomer, axis not shown; (P)) [Example 65, N—((S)-1-((3P)-3-(4-chloro-3-(ethylsulfonamido)-1-methyl-1H-indazol-7-yl)-7-morpholino-4-oxo-3,4-dihydroquinazolin-2-yl)-2-(3,5-difluorophenyl)ethyl)-2-((3bS,4aR)-3-(difluoromethyl)-5,5-difluoro-3b,4,4a,5-tetrahydro-1H-cyclopropa[3,4]cyclopenta[1,2-c]pyrazol-1-yl)acetamide]
EC50 (recombinant NL4-3 virus): 0.051 nM
CC50 at 4 days [1, 2]: > 500 nM

C[C@@H]1CN(c2ccc3c(=O)n(-c4ccc(Cl)c5c(NS(C)(=O)=O)nn(CC(F)F)c45)c([C@H](Cc4cc(F)cc(F)c4)NC(=O)Cn4ccc(C5CC5)n4)nc3c2)C[C@H](C)O1 (atropisomer, axis not shown; (P)) [Example 48, N—((S)-1-((3P)-3-(4-chloro-1-(2,2-difluoroethyl)-3-(methylsulfonamido)-1H-indazol-7-yl)-7-((2S,6R)-2,6-dimethylmorpholino)-4-oxo-3,4-dihydroquinazolin-2-yl)-2-(3,5-difluorophenyl)ethyl)-2-(3-cyclopropyl-1H-pyrazol-1-yl)acetamide]
EC50 (recombinant NL4-3 virus): 0.44 nM
CC50 at 4 days [1, 2]: > 500 nM

Cn1nc(NS(C)(=O)=O)c2c(Cl)ccc(-n3c([C@H](Cc4cc(F)cc(F)c4)NC(=O)Cn4nc(C(F)F)c5c4C(F)(F)[C@@H]4C[C@H]54)nc4cc(N5CCCCCC5)ccc4c3=O)c21 (atropisomer, axis not shown; (P)) [Example 2, N—((S)-1-(7-(azepan-1-yl)-(3P)-3-(4-chloro-1-methyl-3-(methylsulfonamido)-1H-indazol-7-yl)-4-oxo-3,4-dihydroquinazolin-2-yl)-2-(3,5-difluorophenyl)ethyl)-2-((3bS,4aR)-3-(difluoromethyl)-5,5-difluoro-3b,4,4a,5-tetrahydro-1H-cyclopropa[3,4]cyclopenta[1,2-c]pyrazol-1-yl)acetamide]
EC50 (recombinant NL4-3 virus): 0.243 nM
CC50 at 4 days [1, 2]: > 500 nM

CC(C(=O)N[C@@H](Cc1cc(F)cc(F)c1)c1nc2cc(N3C[C@@H](C)O[C@@H](C)C3)ccc2c(=O)n1-c1ccc(Cl)c2c(NS(C)(=O)=O)nn(CC(F)F)c12)n1nc(C(F)(F)F)cc1C1CC1 (some centres unmarked) [Example 55]
EC50 (recombinant NL4-3 virus): 4.3 nM
CC50 at 4 days [1, 2]: > 500 nM

C[C@@H]1CN(c2ccc3c(=O)n(-c4ccc(Cl)c5c(NS(C)(=O)=O)nn(CC(F)F)c45)c([C@H](Cc4cc(F)cc(F)c4)NC(=O)Cc4cn(C5CC5)c5ccccc45)nc3c2)C[C@H](C)O1 [Example 52, N—((S)-1-((3P)-3-(4-chloro-1-(2,2-difluoroethyl)-3-(methylsulfonamido)-1H-indazol-7-yl)-7-((2S,6R)-2,6-dimethylmorpholino)-4-oxo-3,4-dihydroquinazolin-2-yl)-2-(3,5-difluorophenyl)ethyl)-2-(1-cyclopropyl-1H-indol-3-yl)acetamide]
EC50 (recombinant NL4-3 virus): 1.1 nM
CC50 at 4 days [1, 2]: > 500 nM

Cn1nc(NS(C)(=O)=O)c2c(Cl)ccc(-n3c([C@H](Cc4cc(F)cc(F)c4)NC(=O)Cn4nc(C(F)F)c5c4C(F)(F)[C@@H]4C[C@H]54)nc4cc(N5CCC[C@H]5CO)ccc4c3=O)c21 (atropisomer, axis not shown; (P)) [Example 35, N—((S)-1-((3P)-3-(4-chloro-1-methyl-3-(methylsulfonamido)-1H-indazol-7-yl)-7-((S)-2-(hydroxymethyl)pyrrolidin-1-yl)-4-oxo-3,4-dihydroquinazolin-2-yl)-2-(3,5-difluorophenyl)ethyl)-2-((3bS,4aR)-3-(difluoromethyl)-5,5-difluoro-3b,4,4a,5-tetrahydro-1H-cyclopropa[3,4]cyclopenta[1,2-c]pyrazol-1-yl)acetamide]
EC50 (recombinant NL4-3 virus): 0.272 nM
CC50 at 4 days [1, 2]: > 10000 nM
